Assays:
Digitaria ciliaris = assay: Ex 1 pot test, visual % damage; format: in vivo
[1] = system: Ipomoea gradifolia (IAOGR); assay: Ex 4 pre-emergence, visual % damage; format: in vivo; settings: kg/ha or L/ha: Amicarbazone 1.50, Gesapax 5.00, Karmex 5.00, Provence 0.20, Sencor 3.50, alone
Protocol: DINAMIC® (amicarbazone) in combination of various herbicides listed in Table 4-1 were tested for herbicidal activity.
The herbicidal effect was observed by comparing the extent of Ipomoea gradifolia (IAOGR) treated with the compounds against that occurring in similar non-treated control. Herbicidal effect was visually assessed and recorded at 14, 23, 36, 49, 65 and 77 days after treatment (DAT). Damage by the herbicidal compositions was evaluated with reference to a scale of 0% to 100% in comparison with untreated control. 0% means no damage and 100% means complete destruction of the plants. […] The theoretical herbicidal effect index were calculated based on Colby and the values were indicated in bracket ( ). […] Some of the observed herbicidal effects were the same as the theoretical hervicidal effects, which indicate additive effects. The underlined values in the table indicate that the observed weed killing is greater than calculated from the Colby formula and therefore indicates a synergistic weed killing effect or activity.

[2] = system: Kentucky Bluegrass Seedling; settings: in vivo
Protocol: (§1) Containers were watered as needed based on species and water usage. The greenhouse was heated to keep temperatures above 50° F. (10° C.) and ventilated as needed to keep temperatures below 100° F. (38° C.). Typical daytime temperatures in the greenhouse were 80-90° F. (27-32° C.) and nighttime temperatures were between 50-60° F. (10-16° C.). The soil employed was Promix BX potting soil. Overall moisture conditions were normal and the closest weather station was on-site. Conditions and equipment employed in this Example are tabulated below in Tables 5-1 and 5-2.
(§2) All containers were moved outdoors from the greenhouse and arranged in blocks by treatment for the herbicide applications. A single spray application was applied to each block containing four repetitions of each species for each treatment. Plants were then immediately returned to the greenhouse and irrigated with approximately ¼″ water 1-3 hrs after treatment with a hose end sprayer. Only the Poa plants were trimmed with scissors two days prior to treatment at a height of approximately 3 inches.
[…] Tall fescue was seeded into the crabgrass pots. St. Augustine plants (Floratam and Saphire) were shipped from Port St. Lucie, Fla. Only two replicates of Saphire St. Augustine grass were used due to plant availability.
Referring to FIGS. 2A-B, 3A-C, 4A-C, and 5A-D, all ratings of injury or bleaching are based on a scale from 1 to 9. […]

Green Foxtail = assay: Ex 5/7 greenhouse spray, bleaching/injury ratings; format: in vivo
Protocol: as §1, §2
(§3) Referring to FIGS. 2A-B, 3A-C, 4A-C, and 5A-D, all ratings of injury or bleaching are based on a scale from 1 to 9. […] Any bleaching measurement 4 and above was considered unacceptable for desirable turf species. In injury measurements, 1 indicates no injury while 9 indicates a dead plant. Any injury measurement 4 and above was considered unacceptable for desirable turf species). Density correlates with percent cover where 1 indicates no grass while 9 indicates a full pot.
(§4) Replications employed include 4, Untreated treatments: 1, Design: Randomized Complete Block, Treatment units: US standard, Treated plot size Width: 4 feet, Treated plot size Length: 4 feet, Application volume: 50 gal/ac, Mix size: 0.5562 liters, Mix overage: 100%, Format definitions: G-All7.DEF, G-All7.FRM.
(§5) In evaluating synergism, the data from Example 5 above were converted to % of control. This was done based on the data provided on a 1-9 scale detailed in Example 5. Expected values were computed from the % of control data by the formula for expected control=[…], where A is the % of control value for herbicide A alone and B is the % of control value for herbicide B alone.

Mustard (Sinapsis sp.) = assay: Ex 5/7 greenhouse spray, bleaching/injury ratings; format: in vivo
Protocol: as §1, §2, §3, §4, §5

[3] = rating 1, 0.022 lbs ai/A (0.5 oz/A)
[4] = rating 1, 0.13 lbs ai/A (3 oz/A)
[5] = rating 2, 0.022 lbs ai/A (0.5 oz/A)
[6] = rating 2, 0.13 lbs ai/A (3 oz/A)
[7] = rating 3, 0.022 lbs ai/A (0.5 oz/A)
[8] = rating 3, 0.13 lbs ai/A (3 oz/A)
[9] = rating 4, 0.022 lbs ai/A (0.5 oz/A)
[10] = rating 4, 0.13 lbs ai/A (3 oz/A)
[11] = rating 5, 0.022 lbs ai/A (0.5 oz/A)
[12] = rating 5, 0.13 lbs ai/A (3 oz/A)
[13] = 6 DA-A, Trt 2/4/6: Amicarbazone 0.0219, Tenacity 0.125 lb ai/a
[14] = 6 DA-A, Trt 3/5/9: Amicarbazone 0.131, Tenacity 0.25 lb ai/a
[15] = 7 DA-A, Trt 2/4/6: Amicarbazone 0.0219, Tenacity 0.125 lb ai/a
[16] = 7 DA-A, Trt 3/5/9: Amicarbazone 0.131, Tenacity 0.25 lb ai/a

Structure (SMILES): CC(C)c1nn(C(=O)NC(C)(C)C)c(=O)n1N [Amicarbazone, 4-amino-5-isopropyl-2-(tert-butyl-aminocarbonyl)-2,4-dihydro-3H-1,2,4-triazol-3-one]
- herbicide effect (Digitaria ciliaris; 50 g/ha and 100 g/ha, one-leaf stage): small
- percentage control (Digitaria ciliaris; single application 50 g/ha, 5 DAT): 24%
- percentage control (Digitaria ciliaris; single application 50 g/ha, 8 DAT): 38%
- percentage control (Digitaria ciliaris; single application 50 g/ha, 14 DAT): 34%
- percentage control (Digitaria ciliaris; single application 50 g/ha, 21 DAT): 34%
- percentage control (Digitaria ciliaris; single application 50 g/ha, 28 DAT): 26%
- percentage control (Digitaria ciliaris; single application 100 g/ha, 5 DAT): 70%
- percentage control (Digitaria ciliaris; single application 100 g/ha, 8 DAT): 78%
- percentage control (Digitaria ciliaris; single application 100 g/ha, 14 DAT): 82%
- percentage control (Digitaria ciliaris; single application 100 g/ha, 21 DAT): 74%
- percentage control (Digitaria ciliaris; single application 100 g/ha, 28 DAT): 66%
- percentage control (Digitaria ciliaris; single application 200 g/ha, 5 DAT): 92%
- percentage control (Digitaria ciliaris; single application 200 g/ha, 8 DAT): 96%
- percentage control (Digitaria ciliaris; single application 200 g/ha, 14 DAT): 98%
- percentage control (Digitaria ciliaris; single application 200 g/ha, 21 DAT): 86%
- percentage control (Digitaria ciliaris; single application 200 g/ha, 28 DAT): 86%
- percentage control ([1]; 14 DAT): 98%
- percentage control ([1]; 23 DAT): 98%
- percentage control ([1]; 36 DAT): 98%
- percentage control ([1]; 49 DAT): 98%
- percentage control ([1]; 65 DAT): 96%
- percentage control ([1]; 77 DAT): 97%
- injury to seedlings [2]: injured Kentucky Bluegrass seedlings
- Green Foxtail bleaching (Green Foxtail; [3]): 100 % of control
- Green Foxtail injury (Green Foxtail; [3]): 97
- Green Foxtail bleaching (Green Foxtail; [4]): 100 % of control
- Green Foxtail injury (Green Foxtail; [4]): 67
- Green Foxtail bleaching (Green Foxtail; [5]): 104 % of control
- Green Foxtail injury (Green Foxtail; [5]): 94
- Green Foxtail bleaching (Green Foxtail; [6]): 104 % of control
- Green Foxtail injury (Green Foxtail; [6]): 69
- Green Foxtail bleaching (Green Foxtail; [7]): 104 % of control
- Green Foxtail injury (Green Foxtail; [7]): 97
- Green Foxtail bleaching (Green Foxtail; [8]): 104 % of control
- Green Foxtail injury (Green Foxtail; [8]): 81
- Green Foxtail bleaching (Green Foxtail; [9]): 104 % of control
- Green Foxtail injury (Green Foxtail; [9]): 97
- Green Foxtail bleaching (Green Foxtail; [10]): 104 % of control
- Green Foxtail injury (Green Foxtail; [10]): 84
- Green Foxtail bleaching (Green Foxtail; [11]): 160 % of control
- Green Foxtail injury (Green Foxtail; [11]): 102
- Green Foxtail bleaching (Green Foxtail; [12]): 106 % of control
- Green Foxtail injury (Green Foxtail; [12]): 77
- Green Foxtail injury (Green Foxtail; rating 6, 0.022 lbs ai/A (0.5 oz/A)): 97
- Green Foxtail injury (Green Foxtail; rating 6, 0.13 lbs ai/A (3 oz/A)): 73
- Green Foxtail injury (Green Foxtail; rating 7, 0.022 lbs ai/A (0.5 oz/A)): 268
- Green Foxtail injury (Green Foxtail; rating 7, 0.13 lbs ai/A (3 oz/A)): 144
- Injury (1-9 scale) (Mustard (Sinapsis sp.); 3 DA-A, Trt 2/4/6: Amicarbazone 0.0219, Tenacity 0.125 lb ai/a): 2.8 b
- Injury (1-9 scale) (Mustard (Sinapsis sp.); 3 DA-A, Trt 3/5/9: Amicarbazone 0.131, Tenacity 0.25 lb ai/a): 6.8 a
- Bleaching (1-9 scale) (Mustard (Sinapsis sp.); [13]): 2.0 bc
- Injury (1-9 scale) (Mustard (Sinapsis sp.); [13]): 2.8 c
- Bleaching (1-9 scale) (Mustard (Sinapsis sp.); [14]): 1.3 c
- Injury (1-9 scale) (Mustard (Sinapsis sp.); [14]): 6.5 ab
- Bleaching (1-9 scale) (Mustard (Sinapsis sp.); [15]): 2.0 bc
- Injury (1-9 scale) (Mustard (Sinapsis sp.); [15]): 4.3 c
- Bleaching (1-9 scale) (Mustard (Sinapsis sp.); [16]): 2.0 bc
- Injury (1-9 scale) (Mustard (Sinapsis sp.); [16]): 7.0 b
- Injury (1-9 scale) (Mustard (Sinapsis sp.); 10 DA-A, Trt 2/4/6: Amicarbazone 0.0219, Tenacity 0.125 lb ai/a): 6.0 b
- Injury (1-9 scale) (Mustard (Sinapsis sp.); 10 DA-A, Trt 3/5/9: Amicarbazone 0.131, Tenacity 0.25 lb ai/a): 8.8 a
- Injury (1-9 scale) (Mustard (Sinapsis sp.); 14 DA-A, Trt 2/4/6: Amicarbazone 0.0219, Tenacity 0.125 lb ai/a): 5.8 b
- Injury (1-9 scale) (Mustard (Sinapsis sp.); 14 DA-A, Trt 3/5/9: Amicarbazone 0.131, Tenacity 0.25 lb ai/a): 8.8 a
- Mustard bleaching (Mustard (Sinapsis sp.); [3]): 119 % of control
- Mustard injury (Mustard (Sinapsis sp.); [3]): 78 % of control
- Mustard bleaching (Mustard (Sinapsis sp.); [4]): 132 % of control
- Mustard injury (Mustard (Sinapsis sp.); [4]): 28 % of control
- Mustard bleaching (Mustard (Sinapsis sp.); [5]): 94 % of control
- Mustard injury (Mustard (Sinapsis sp.); [5]): 78 % of control
- Mustard bleaching (Mustard (Sinapsis sp.); [6]): 94 % of control
- Mustard injury (Mustard (Sinapsis sp.); [6]): 31 % of control
- Mustard injury (Mustard (Sinapsis sp.); [7]): 61 % of control
- Mustard injury (Mustard (Sinapsis sp.); [8]): 26 % of control
- Mustard injury (Mustard (Sinapsis sp.); [9]): 39 % of control
- Mustard injury (Mustard (Sinapsis sp.); [10]): 3 % of control
- Mustard injury (Mustard (Sinapsis sp.); [11]): 42 % of control
- Mustard injury (Mustard (Sinapsis sp.); [12]): 3 % of control

From patent publication US11432549B2, “Carbamoyl triazolinone based herbicide combinations and method of use” (Arysta LifeScience Corporation, priority 2009, dated 2022)
